From the supplement of paper PMC13380429

Columns and labels:
Settings in all cases: 72 h
U2OS [1] = experiment: cell viability relative to DMSO; higher = less toxic
Caco-2 [2] = experiment: as above
Calu-3 [3] = experiment: as above
Vero E6 [4] = experiment: as above
HepG2 [5] = experiment: as above
U2OS [6] = experiment: drug sensitivity score (DSS) for viability; higher = more toxic; extreme values may be limits of the assay
Caco-2 [7] = experiment: as above
Calu-3 [8] = experiment: as above
Vero E6 [9] = experiment: as above
HepG2 [10] = experiment: as above
U2OS [11] = experiment: relative viability EC50 (midpoint between 100% and the lowest measured viability); higher = less toxic
Caco-2 [12] = experiment: as above
Calu-3 [13] = experiment: as above
Vero E6 [14] = experiment: as above
HepG2 [15] = experiment: as above

Row | Structure (SMILES) | cell viability (U2OS [1]; 1 nM) | cell viability (U2OS [1]; 10 nM) | cell viability (U2OS [1]; 100 nM) | cell viability (U2OS [1]; 1000 nM) | cell viability (U2OS [1]; 10000 nM) | cell viability (Caco-2 [2]; 1 nM) | cell viability (Caco-2 [2]; 10 nM) | cell viability (Caco-2 [2]; 100 nM) | cell viability (Caco-2 [2]; 1000 nM) | cell viability (Caco-2 [2]; 10000 nM) | cell viability (Calu-3 [3]; 1 nM) | cell viability (Calu-3 [3]; 10 nM) | cell viability (Calu-3 [3]; 100 nM) | cell viability (Calu-3 [3]; 1000 nM) | cell viability (Calu-3 [3]; 10000 nM) | cell viability (Vero E6 [4]; 1 nM) | cell viability (Vero E6 [4]; 10 nM) | cell viability (Vero E6 [4]; 100 nM) | cell viability (Vero E6 [4]; 1000 nM) | cell viability (Vero E6 [4]; 10000 nM) | cell viability (HepG2 [5]; 1 nM) | cell viability (HepG2 [5]; 10 nM) | cell viability (HepG2 [5]; 100 nM) | cell viability (HepG2 [5]; 1000 nM) | cell viability (HepG2 [5]; 10000 nM) | drug sensitivity score (U2OS [6]) | drug sensitivity score (Caco-2 [7]) | drug sensitivity score (Calu-3 [8]) | drug sensitivity score (Vero E6 [9]) | drug sensitivity score (HepG2 [10]) | relative viability EC50 (U2OS [11]) | relative viability EC50 (Caco-2 [12]) | relative viability EC50 (Calu-3 [13]) | relative viability EC50 (Vero E6 [14]) | relative viability EC50 (HepG2 [15])
1 | CN(C)C(=O)Oc1cc(OC(=O)N(C)C)cc(C(O)CNC(C)(C)C)c1 (stereo not given) [bambuterol] | 96.4% | 93.5% | 95.5% | 101% | 104% | 97.7% | 94.5% | 89.6% | 103% | 104% | 95.8% | 98.6% | 99.2% | 89.4% | 117% | 99.8% | 97.9% | 93.1% | 90.3% | 101% | 96.1% | 97.2% | 99.1% | 96.9% | 95.6% | 0 | 0 | 0 | 0 | 0 | > 10 µM | > 10 µM | > 10 µM | > 10 µM | > 10 µM
2 | O=C(/C=C/c1cccc(S(=O)(=O)Nc2ccccc2)c1)NO [belinostat] | 94.6% | 94.9% | 81.9% | 16% | 0.9% | 87.9% | 96.6% | 89.3% | 21.6% | 0.6% | 90.7% | 89.2% | 86.6% | 41% | 9.9% | 93.2% | 92.9% | 83.4% | 8.4% | 0.1% | 98.5% | 98.7% | 87.6% | 22.4% | 0.3% | 17.7 | 15.9 | 13.1 | 18.8 | 16 | 0.29 µM | 0.412 µM | 0.506 µM | 0.252 µM | 0.406 µM
3 | CC[C@H](CC[C@@H](C)[C@H]1CC[C@H]2[C@@H]3CC=C4C[C@@H](O)CC[C@]4(C)[C@H]3CC[C@]12C)C(C)C [beta-Sitosterol] | 96.4% | 99.1% | 99.6% | 101% | 97.4% | 95.1% | 108% | 99.4% | 97.6% | 107% | 91.6% | 105% | 99% | 93.7% | 106% | 92.7% | 105% | 92.4% | 99.2% | 108% | 88.3% | 114% | 93.3% | 98.8% | 109% | 0 | 0 | 0 | 0 | 0 | > 10 µM | > 10 µM | > 10 µM | > 10 µM | > 10 µM
4 | COC(=O)/C=C/C(=O)N[C@@H]1CC[C@@]2(O)[C@H]3Cc4ccc(O)c5c4[C@@]2(CCN3CC2CC2)[C@H]1O5 [beta-funaltrexamine] | 104% | 98.7% | 101% | 96.3% | 89.9% | 104% | 91.5% | 90% | 94.8% | 82.4% | 95.2% | 99.5% | 101% | 102% | 99.6% | 92.4% | 96.1% | 93.1% | 105% | 101% | 93.6% | 92.8% | 92.4% | 90.6% | 89.2% | 0 | 0.7 | 0 | 0 | 0 | > 10 µM | > 10 µM | > 10 µM | > 10 µM | > 10 µM
5 | Nc1cc(C(F)(F)F)c(-c2cc(N3CCOCC3)nc(N3CCOCC3)n2)cn1 [buparlisib] | 103% | 102% | 104% | 79.4% | 15.6% | 95.3% | 99% | 91.5% | 53.5% | 18% | 116% | 97.3% | 87.7% | 40.5% | 18% | 101% | 97% | 92.9% | 66.2% | 17.8% | 100% | 96.6% | 95.7% | 67.2% | 10.5% | 7.9 | 10.3 | 12.7 | 8.4 | 9.1 | 1.57 µM | 0.761 µM | 0.434 µM | 1.22 µM | 1.3 µM
6 | CS(=O)(=O)OCCCCOS(C)(=O)=O [busulfan] | 102% | 95.9% | 105% | 98.4% | 100% | 109% | 93.4% | 92.1% | 84.1% | 96.5% | 101% | 104% | 89.7% | 99.6% | 106% | 94.9% | 94.8% | 99.6% | 86.2% | 84.5% | 107% | 92.9% | 112% | 95.8% | 79.2% | 0 | 0.2 | 0 | 1.3 | 1.2 | > 10 µM | > 10 µM | > 10 µM | > 10 µM | > 10 µM
